Results from patent EP4800036A1, “ANTIBODY OR TROP2 ANTIGEN BINDING FRAGMENT BINDING TO TROP2, ANTI-TROP2 CAR, AND USE” (priority 2023, dated 2025).

Columns and labels:
[1] = system: small cell lung cancer; conditions: 50 patients with small cell lung cancer; cited from earlier work
[2] = system: triple-negative breast cancer; conditions: third-line treatment; cited from earlier work
[3] = system: advanced NSCLC; conditions: patients with advanced NSCLC; cited from earlier work
[4] = system: NSCLC; conditions: 44 patients with NSCLC; cited from earlier work
[5] = target: T1, Human TROP-2/TACSTD2 Protein, His Tag (ACRO, catalog No. TR2-H5223) (human, UniProt P09758 27-274); test: phage ELISA, Trop2-His coated at 1 µg/mL, anti-M13-HRP detection
T1 construct: extracellular domain; Bought protein; also called Trop2-His; Trop2-His antigen; not shown: His tag
T1 sequence (looked up): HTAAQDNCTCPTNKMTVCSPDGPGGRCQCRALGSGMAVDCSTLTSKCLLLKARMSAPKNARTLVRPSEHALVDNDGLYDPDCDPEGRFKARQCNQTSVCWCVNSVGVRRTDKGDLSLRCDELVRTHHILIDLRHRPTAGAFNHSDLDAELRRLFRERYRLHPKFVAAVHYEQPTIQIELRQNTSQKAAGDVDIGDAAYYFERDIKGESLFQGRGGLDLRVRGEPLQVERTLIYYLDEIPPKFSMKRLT

Sacituzumab govitecan [IMMU-132]
ORR [1]: 14% | PFS [1]: 3.7 months | clinical benefit rate (complete response + partial response + stable disease ≥ 4 months) [1]: 34% | disease control rate [2]: 45% | patients who experienced tumor shrinkage at least once [2]: 74% | progression-free survival (PFS) rate [2]: 33.3% | overall survival [3]: 9.5 months | PFS [4]: 5.2 months | clinical benefit rate (complete response + partial response + stable disease ≥ 4 months) [4]: 43% | objective response rate (ORR) [4]: 19%

B1: anti-Trop2 positive clone 3 (T3), phage scFv (scFv)
scFv: DIQMTQSPSTLSASVGDRVTITCRASQSISSWLAWYQQKPGKAPKLLIYKASSLESGVPPRFSGSGSGAEFTLTISSLQPDDFATYYCQQYNSYPLTFGGGTKVEVKGGGGSGGGGSGGGGSEVQLVQSGGGLVQPGGSLRLSCEDSGFTFSSYWMSWVRQAPGKGLEWVSSISSSSSYIYYADSVKGRFTISRDNAKNSLYLQMNSLRGEDTAVYYCAREQSSSGFDYWGQGTLVTVSS
notes: also called T3 clone; T3 anti-Trop2 scFv
binding result [5]: binds
